Results as given in publication PMC5454592, “Pharmacological and Toxicological Properties of the Potent Oral γ-Secretase Modulator BPN-15606” (The Journal of Pharmacology and Experimental Therapeutics, 2017).
Read-outs that look alike come from different tables or passages of the source.

Legend:
[1] = test system: Notch proteolysis by γ-secretase; assay: Notch assay (Myc-tagged Notch NΔE in H4-APP751 neuroglioma cells); assay type: cell-based
Method: Notch assays were carried out as described previously ([Wagner et al., 2014]).

PK in rat (i.v./po) = assay type: in vivo; conditions: male, plasma, Sprague–Dawley rats, 5 mg/kg po vs 1 mg/kg i.v.
Method: Male CD-1 mice and male Sprague–Dawley rats were administered a single dose of BPN-15606 by i.v. or oral gavage (po) dose routes to assess oral bioavailability. Mice and rats received BPN-15606 as a single i.v. dose at 1 mg/kg (n = 5) or a single po dose at 5 mg/kg (n = 5). Blood was collected from mice and rats at 5 (i.v. only), 15, and 30 minutes, and 1, 2, 4, 8, and 12 hours postdose for processing to plasma. For mice, brains were collected from both dose groups (i.v. and po) at 1, 4, 8, and 12 hours postdose. For rats, brains were collected from those same animals at the 12-hour time point only. […]
Data were subjected to noncompartmental analysis using WinNonlin Phoenix Model 200 (for extravascular administration) or Model 201 (for i.v. bolus administration) and the sparse sampling feature; a uniform weighting factor was applied to each data set. Time to maximum plasma concentration (Tmax) and maximum plasma concentration (Cmax) values were determined directly from the data. Area under the plasma concentration–time curve to the last time point (AUClast) values were calculated using the log/linear trapezoidal (i.v. dose) or linear up/log down trapezoidal (po dose). Values were calculated using the plasma data from composite groups. […] The volume of distribution at steady state and clearance were calculated using the i.v. group data. […]

Aβ neuritic plaques = assay: Chronic repeat-dose efficacy in PSAPP transgenic mice (Thioflavin S plaque load); assay type: in vivo
Method: Thirty-five female double-transgenic mice, model presenilin amyloid precursor protein ([Jankowsky et al., 2004]), purchased from The Jackson Laboratory (Bar Harbor, ME) [B6.C3-Tg (APPswe, PSEN1dE9) 85Dbo/Mmjax, stock no. 0034829] and then bred in-house, were used in the study at 90 days of age. The mice were housed in a temperature-controlled room at a constant 22°C in a 12:12-hour light/dark cycle (lights off at 18:00), with food and water available ad libitum. Age-matched mice were housed by treatment group in groups of two to four per cage. All experimental procedures were reviewed and approved by Institutional Animal Care and Use Committee at University of California, San Diego. Subjects were randomly assigned to either the drug group (BPN-15606) or vehicle, with individual groups ranging from 9 to 10 mice. Mice were treated for 6 months with BPN-15606 at a dose of 10 mg/kg/d. For the drug administration, BPN-15606 was milled into standard rodent chow, processed by Research Diets (New Brunswick, NJ). All animals were weighed three times weekly to assess any adverse effects on normal weight gain during the 6-month treatment period. Food consumption was determined by weighing the metal cage, including the chow, to the nearest 0.1 g.
To determine Aβ fibril plaque load, floating coronal sections from AD and wild-type mice, n = 4 for each group, were washed in miliQ water and mounted on Fisherbrand Superfrost Plus microscope slides, before being processed for 1% (w/v) Thioflavin S staining. All images were taken with Leica (Mannheim, Germany) fluorescence microscope at 5× and with the same exposure across all images. The percent plaque within specified areas of a series of hippocampal and frontal cortex sections was quantified using ImageJ software from National Institutes of Health. Images were converted to 8-bit grayscale, and area of interest was traced and determined. Brightness and B/W threshold were adjusted appropriately and consistently across all images. The area of plaque particles within the area of interest was obtained, and the percent plaque was calculated. […]

[2] = Metabolite identification in cryopreserved hepatocytes; assay type: in vitro ADME, mouse, rat, dog, monkey, human; conditions: hepatocyte cultures from five species
Method: Test compound (1 μM) was incubated at 37°C for 4 hours with cryopreserved mouse, rat, dog, monkey, or human hepatocytes. Identification of metabolites’ molecular weights and relative abundance of the specific metabolites was based on high performance liquid chromatography (HPLC)/MS/MS peak areas, and structural characterization of metabolites was accomplished by LC/MS/MS/Q-Trap.

[3] = Toxicokinetics in rats (7-day po); assay type: in vivo; conditions: male, Sprague-Dawley, rat, plasma; for MRT last: day 1, read-out: mean residence time to the last time point
Method: Data were subjected to noncompartmental analysis using WinNonlin Phoenix Model 200 (for extravascular administration) or Model 201 (for i.v. bolus administration) and the sparse sampling feature; a uniform weighting factor was applied to each data set. Time to maximum plasma concentration (Tmax) and maximum plasma concentration (Cmax) values were determined directly from the data. Area under the plasma concentration–time curve to the last time point (AUClast) values were calculated using the log/linear trapezoidal (i.v. dose) or linear up/log down trapezoidal (po dose). Values were calculated using the plasma data from composite groups. The dose administered was input to the program as mg/kg, and as a result no additional corrections for individual body weights of the animals were necessary. The following parameters and constants were determined for the i.v. and po groups: observed Cmax, Tmax, AUClast, area under the plasma concentration–time curve extrapolated to infinity, terminal phase elimination half-life, and mean residence time to the last time point. The volume of distribution at steady state and clearance were calculated using the i.v. group data. Bioavailability after oral administration was calculated using the AUClast values for both the i.v. and po groups.
The objectives of this toxicity study were to determine maximum tolerated dose (MTD), characterize the potential toxicity, and calculate toxicokinetic parameters of BPN-15606 in adult male Sprague–Dawley rats (8–10 weeks of age) following daily po dose administration for 7 consecutive days, and to evaluate its potential to damage chromosomes or cause mitotic spindle abnormalities in vivo, as measured by the incidence of micronucleus formation in RNA-containing erythrocytes (bone marrow micronucleus assay). An overview of the study design is presented in Supplemental Table 8. Male rats were administered BPN-15606 po for 7 consecutive days at 30, 100, or 300 mg/kg (groups 2, 3, and 4). A control group (group 1) was given vehicle, 15% Labrasol/85% sterile water, at an equivalent dose volume (10 ml/kg). A 375 mg/kg dose (group 5) was included for determination of day 1 plasma drug levels. Clinical observations were recorded twice daily.

[4] = 10 mg/kg/d in chow for 6 months

For `COc1nc(-c2cc(C)c(N[C@@H](C)c3ccc(F)cc3)nn2)ccc1-n1cnc(C)c1` [BPN-15606, (S)-N-(1-(4-fluorophenyl)ethyl)-6-(6-methoxy-5-(4-methyl-1H-imidazol-1-yl)pyridin-2-yl)-4-methylpyridazin-3-amine], the Notch proteolysis ([1]; H4-APP751 neuroglioma cells transfected with Myc-tagged Notch (NΔE) construct, Fig. 3) was “does not inhibit Notch proteolysis”, the Notch cleavage ([1]; doses as high as 25 μM) was “does not affect Notch cleavage” and the bioavailability (PK in rat (i.v./po)) was greater than 60%. For the same compound, the “necropsy findings at end of study” value (Aβ neuritic plaques; 10 mg/kg/d for 6 months) was “no significant adverse findings”, the “accumulation of Aβ neuritic plaques in cortex (Thioflavin S, densitometry)” value (Aβ neuritic plaques; [4]) was “significantly reduced accumulation of Aβ neuritic plaques” and the “accumulation of Aβ neuritic plaques in hippocampus (Thioflavin S, densitometry)” value (Aβ neuritic plaques; [4]) was “significantly reduced accumulation of Aβ neuritic plaques”. The uniquely human metabolites [2] was “absence of any unique human metabolites”, the uniquely human metabolites ([2]; listed as BPN-15605) was “no uniquely human metabolites identified” and the Tmax ([3]; 30 mg/kg, rats, 30 mg/kg, day 1, read-out: mean Tmax) was 13.3 h. For the same compound, the Tmax ([3]; 30 mg/kg, rats, 30 mg/kg, day 7, read-out: mean Tmax) was 6.7 h, the Tmax ([3]; rats po, depending on dose, read-out: Tmax for individual animals) was 4 to 24 h and the MRT last ([3]; rats, 30 mg/kg) was 9.1 h. The MRT last ([3]; rats, 100 mg/kg) was 13.6 h and the Tmax ([3]; rats, 100 and 300 dose groups, day 1, read-out: mean Tmax (time to the peak plasma drug level)) was 18.7 h.
